# From patent US10448639B2, “Fungicidal pyrazoles” (FMC CORPORATION, priority 2009, dated 2019)
# Read-outs that look alike come from different tables or passages of the source. Marks after values point to notes of the source that are not given here.
# Legend:
# Septoria nodorum = test: Test F: Septoria glume blotch, preventive spray on wheat seedlings, visual disease rating; conditions: for Test F rating (% disease control) / Test F disease control rating: 100 = 100% disease control; for pest or weed control at 200 µg/mL: Parastagonospora nodorum, in Triticum aestivum, 192 h; for Test F disease control rating: 0 = no disease control relative to controls
# Text: General protocol for preparing test suspensions for Tests A-J: the test compounds were first dissolved in acetone in an amount equal to 3% of the final volume and then suspended at the desired concentration (in ppm) in acetone and purified water (50/50 mix by volume) containing 250 ppm of the surfactant Trem® 014 (polyhydric alcohol esters). The resulting test suspensions were then used in Tests A-J. Spraying a 200 ppm test suspension to the point of run-off on the test plants was the equivalent of a rate of 500 g/ha. Unless otherwise indicated, the rating values indicate a 200 ppm test suspension was used. (An asterisk “*” next to the rating value indicates a 40 ppm test suspension was used.)
# The test suspension was sprayed to the point of run-off on wheat seedlings. The following day the seedlings were inoculated with a spore suspension of Septoria nodorum (the causal agent of Septoria glume blotch) and incubated in a saturated atmosphere at 24° C. for 48 h, and then moved to a growth chamber at 20° C. for 6 days, after which time visual disease ratings were made.
# Botrytis cinerea = test: Test B: tomato Botrytis, preventive spray on tomato seedlings, visual disease rating; conditions: for Test B rating (% disease control) / Test B disease control rating: 100 = 100% disease control; for pest or weed control at 200 µg/mL: Botrytis cinerea, in Solanum lycopersicum, 120 h; for Test B disease control rating: 0 = no disease control relative to controls
# Alternaria solani = test: Test C: tomato early blight, preventive spray on tomato seedlings, visual disease rating; conditions: for Test C rating (% disease control) / Test C disease control rating: 100 = 100% disease control; for pest or weed control at 200 µg/mL: Alternaria solani, in Solanum lycopersicum, 168 h; for Test C disease control rating: 0 = no disease control relative to controls
# [1] = test system: Puccinia recondita f. sp. tritici; test: Test I: wheat leaf rust, preventive spray on wheat seedlings, visual disease rating; conditions: for Test I rating (% disease control) / Test I disease control rating: 100 = 100% disease control; for pest or weed control at 200 µg/mL: 192 h; for Test I disease control rating: sprayed the day before inoculation, 0 = no disease control relative to controls
# [2] = test system: Puccinia recondita f. sp. tritici; test: Test H: wheat leaf rust, curative spray on inoculated wheat seedlings, visual disease rating; conditions: for Test H rating (% disease control) / Test H disease control rating: 100 = 100% disease control; for Test H rating (% disease control): 0 = no control relative to controls; for pest or weed control at 200 µg/mL: 144 h; for Test H disease control rating: sprayed after inoculation, 0 = no disease control relative to controls
# [3] = test system: Erysiphe graminis f sp. tritici; test: Test J: wheat powdery mildew, preventive spray on wheat seedlings, visual disease rating; conditions: for Test J rating (% disease control) / Test J disease control rating: 100 = 100% disease control; for pest or weed control at 200 µg/mL: Blumeria graminis, in Triticum aestivum, 192 h; for Test J disease control rating: sprayed the day before inoculation, 0 = no disease control relative to controls
# Septoria tritici = test: Test G: wheat leaf blotch, preventive spray on wheat seedlings, visual disease rating; conditions: wheat leaf blotch, preventive spray; 100 = 100% disease control, 0 = no control
# [4] = Septoria glume blotch on wheat, preventive spray, 0 = no control
# [5] = tomato Botrytis, preventive spray, 0 = no control
# [6] = tomato early blight, preventive spray, 0 = no control
# [7] = wheat leaf rust, preventive spray, 0 = no control
# [8] = wheat powdery mildew, preventive spray, 0 = no control
# [9] = Septoria glume blotch, 0 = no control relative to controls
# [10] = tomato Botrytis, 0 = no control relative to controls
# [11] = tomato early blight, 0 = no control relative to controls
# [12] = wheat leaf rust, preventive, 0 = no control relative to controls
# [13] = wheat powdery mildew, 0 = no control relative to controls
# [14] = read-out: Test F disease control rating
# [15] = read-out: Test B disease control rating
# [16] = read-out: Test C disease control rating
# [17] = read-out: Test I disease control rating
# [18] = read-out: Test H disease control rating
# [19] = read-out: Test J disease control rating
smiles,measurement,setting,value
"Cc1nn(C)c(Nc2c(F)cc(Cl)cc2F)c1-c1ccc(F)cc1Cl [Compound 286, N-(4-chloro-2,6-difluorophenyl)-4-(2-chloro-4-fluorophenyl)-1,3-dimethyl-1H-pyrazole-5-amine]","Test F rating (% disease control), marked *","Septoria nodorum; Septoria glume blotch, rating marked with asterisk (*), meaning not given",60* %
same,"Test B rating (% disease control), marked *","Botrytis cinerea; tomato Botrytis, rating marked with asterisk (*), meaning not given",98* %
same,"Test C rating (% disease control), marked *","Alternaria solani; tomato early blight, rating marked with asterisk (*), meaning not given",85* %
same,"Test I rating (% disease control), marked *","[1]; wheat leaf rust, preventive, rating marked with asterisk (*), meaning not given",100* %
same,"Test H rating (% disease control), marked *","[2]; wheat leaf rust, curative, rating marked with asterisk (*), meaning not given",100* %
same,"Test J rating (% disease control), marked *","[3]; wheat powdery mildew, rating marked with asterisk (*), meaning not given",100* %
Cc1nn(C)c(Nc2ccc(Cl)c(F)c2)c1-c1c(F)cc(C#N)cc1F [compound 125],Test F rating (% disease control),Septoria nodorum; [4],60%
same,Test B rating (% disease control),Botrytis cinerea; [5],100%
same,Test G rating (% disease control),Septoria tritici,99%
same,Test C rating (% disease control),Alternaria solani; [6],67%
same,Test I rating (% disease control),[1]; [7],92%
same,Test J rating (% disease control),[3]; [8],0%
Cc1nn(C)c(Nc2ccc(Cl)cc2Cl)c1-c1ccc(F)cc1Cl [compound 299],Test F rating (% disease control),Septoria nodorum; [9],51%
same,Test B rating (% disease control),Botrytis cinerea; [10],100%
same,Test C rating (% disease control),Alternaria solani; [11],95%
same,Test I rating (% disease control),[1]; [12],100%
same,Test H rating (% disease control),"[2]; wheat leaf rust, curative",41%
same,Test J rating (% disease control),[3]; [13],100%
"Cc1nn(C)c(C(O)c2ccc(F)cc2F)c1-c1ccc(F)cc1Cl (stereo not drawn) [Compound 351, 4-(2-chloro-4-fluorophenyl)-α-(2,4-difluorophenyl)-1,3-dimethyl-1H-pyrazole-5-methanol]",pest or weed control at 200 µg/mL,Septoria nodorum; [14],92%
same,pest or weed control at 200 µg/mL,Botrytis cinerea; [15],100%
same,pest or weed control at 200 µg/mL,Alternaria solani; [16],99%
same,pest or weed control at 200 µg/mL,[1]; [17],100%
same,pest or weed control at 200 µg/mL,[2]; [18],96%
same,pest or weed control at 200 µg/mL,[3]; [19],99%
Cc1nn(C)c(Nc2ccc(Cl)c(F)c2)c1-c1c(F)cc(F)cc1F [compound 14],Test F rating (% disease control),Septoria nodorum; [4],0%
same,Test B rating (% disease control),Botrytis cinerea; [5],98%
same,Test G rating (% disease control),Septoria tritici,99%
same,Test C rating (% disease control),Alternaria solani; [6],0%
same,Test I rating (% disease control),[1]; [7],99%
same,Test J rating (% disease control),[3]; [8],98%
Cc1nn(C)c(Nc2c(F)cc(F)cc2Cl)c1-c1ccc(Cl)cc1Cl [compound 391],Test F disease control rating,Septoria nodorum; Septoria glume blotch on wheat,73%
same,Test B disease control rating,Botrytis cinerea; tomato Botrytis,100%
same,Test C disease control rating,Alternaria solani; tomato early blight,99%
same,Test I disease control rating,[1]; wheat leaf rust,99%
same,Test H disease control rating,[2]; wheat leaf rust,31%
same,Test J disease control rating,[3]; wheat powdery mildew,99%
"Cc1nn(C)c(Oc2ccc(C#N)cc2F)c1-c1ccc(F)cc1Br [Compound 284, 4-[[4-(2-bromo-4-fluorophenyl)-1,3-dimethyl-1H-pyrazol-5-yl]oxy]-3-fluorobenzonitrile]",pest or weed control at 200 µg/mL,Septoria nodorum; read-out: Test F rating (% disease control),100%
same,pest or weed control at 200 µg/mL,Botrytis cinerea; read-out: Test B rating (% disease control),99%
same,pest or weed control at 200 µg/mL,Alternaria solani; read-out: Test C rating (% disease control),99%
same,pest or weed control at 200 µg/mL,[1]; read-out: Test I rating (% disease control),100%
same,pest or weed control at 200 µg/mL,[2]; read-out: Test H rating (% disease control),28%
same,pest or weed control at 200 µg/mL,[3]; read-out: Test J rating (% disease control),100%
Cc1nn(C)c(Nc2ccc(Cl)c(Cl)c2)c1-c1c(F)cc(C#N)cc1F [compound 123],Test F rating (% disease control),Septoria nodorum; [4],40%
same,Test B rating (% disease control),Botrytis cinerea; [5],99%
same,Test G rating (% disease control),Septoria tritici,99%
same,Test C rating (% disease control),Alternaria solani; [6],0%
same,Test I rating (% disease control),[1]; [7],80%
same,Test J rating (% disease control),[3]; [8],0%
"Cc1nn(C)c(Nc2c(Cl)cc(F)cc2Cl)c1-c1ccc(F)cc1Cl [Compound 369, 4-(2-chloro-4-fluorophenyl)-N-(2,6-dichloro-4-fluorophenyl)-1,3-dimethyl-1H-pyrazol-5-amine]",pest or weed control at 200 µg/mL,Septoria nodorum; [14],0%
same,pest or weed control at 200 µg/mL,Botrytis cinerea; [15],100%
same,pest or weed control at 200 µg/mL,Alternaria solani; [16],66%
same,pest or weed control at 200 µg/mL,[1]; [17],100%
same,pest or weed control at 200 µg/mL,[2]; [18],17%
same,pest or weed control at 200 µg/mL,[3]; [19],99%
Cc1nn(C)c(Nc2ccc(Cl)cc2Cl)c1-c1c(F)cccc1Cl [compound 283],Test F rating (% disease control),Septoria nodorum; [9],0%
same,Test B rating (% disease control),Botrytis cinerea; [10],99%
same,Test C rating (% disease control),Alternaria solani; [11],65%
same,Test I rating (% disease control),[1]; [12],99%
same,Test H rating (% disease control),"[2]; wheat leaf rust, curative",9%
same,Test J rating (% disease control),[3]; [13],100%
Cc1nn(C)c(Oc2ccc(C#N)cc2Cl)c1-c1ccc(F)cc1Br [compound 285],Test F rating (% disease control),Septoria nodorum; [9],60%
same,Test B rating (% disease control),Botrytis cinerea; [10],98%
same,Test C rating (% disease control),Alternaria solani; [11],0%
same,Test I rating (% disease control),[1]; [12],99%
same,Test H rating (% disease control),"[2]; wheat leaf rust, curative",9%
same,Test J rating (% disease control),[3]; [13],99%
Cc1nn(C)c(Nc2c(Cl)cc(Br)cc2Cl)c1-c1ccc(F)cc1Cl [compound 403],Test F disease control rating,Septoria nodorum; Septoria glume blotch on wheat,0%
same,Test B disease control rating,Botrytis cinerea; tomato Botrytis,99%
same,Test C disease control rating,Alternaria solani; tomato early blight,0%
same,Test I disease control rating,[1]; wheat leaf rust,100%
same,Test H disease control rating,[2]; wheat leaf rust,99%
same,Test J disease control rating,[3]; wheat powdery mildew,99%
COc1ccc(Oc2c(-c3ccc(F)cc3Cl)c(C)nn2C)c(F)c1 [compound 21],Test F rating (% disease control),Septoria nodorum; [4],97%
same,Test B rating (% disease control),Botrytis cinerea; [5],98%
same,Test C rating (% disease control),Alternaria solani; [6],100%
same,Test I rating (% disease control),[1]; [7],100%
same,Test J rating (% disease control),[3]; [8],99%
Cc1nn(C)c(C(O)c2ccc(F)cc2)c1-c1ccc(F)cc1Cl (racemic) [compound 350],Test F disease control rating,Septoria nodorum; Septoria glume blotch on wheat,0%
same,Test B disease control rating,Botrytis cinerea; tomato Botrytis,99%
same,Test C disease control rating,Alternaria solani; tomato early blight,9%
same,Test I disease control rating,[1]; wheat leaf rust,96%
same,Test H disease control rating,[2]; wheat leaf rust,9%
same,Test J disease control rating,[3]; wheat powdery mildew,0%
Cc1nn(C)c(C(O)c2c(F)ccc(F)c2F)c1-c1ccc(F)cc1Cl (racemic) [compound 356],Test F disease control rating,Septoria nodorum; Septoria glume blotch on wheat,0%
same,Test B disease control rating,Botrytis cinerea; tomato Botrytis,100%
same,Test C disease control rating,Alternaria solani; tomato early blight,0%
same,Test I disease control rating,[1]; wheat leaf rust,100%
same,Test H disease control rating,[2]; wheat leaf rust,100%
same,Test J disease control rating,[3]; wheat powdery mildew,0%
"Cc1nn(C)c(Nc2c(F)cc(Cl)cc2Cl)c1-c1ccc(F)cc1Cl [Compound 367, 4-(2-chloro-4-fluorophenyl)-N-(2,4-dichloro-6-fluorophenyl)-1,3-dimethyl-1H-pyrazol-5-amine]",pest or weed control at 200 µg/mL,Septoria nodorum; [14],100%
same,pest or weed control at 200 µg/mL,Botrytis cinerea; [15],100%
same,pest or weed control at 200 µg/mL,Alternaria solani; [16],100%
same,pest or weed control at 200 µg/mL,[1]; [17],100%
same,pest or weed control at 200 µg/mL,[2]; [18],100%
same,pest or weed control at 200 µg/mL,[3]; [19],100%
COc1cccc(Nc2c(-c3ccc(F)cc3F)c(C)nn2C)c1Cl [compound 281],Test F rating (% disease control),Septoria nodorum; [9],0%
same,Test B rating (% disease control),Botrytis cinerea; [10],98%
same,Test C rating (% disease control),Alternaria solani; [11],44%
same,Test I rating (% disease control),[1]; [12],94%
same,Test H rating (% disease control),"[2]; wheat leaf rust, curative",0%
same,Test J rating (% disease control),[3]; [13],98%
Cc1nn(C)c(Nc2c(Cl)cc(F)cc2Cl)c1-c1ccc(F)cc1Br [compound 316],Test F disease control rating,Septoria nodorum; Septoria glume blotch on wheat,0%
same,Test B disease control rating,Botrytis cinerea; tomato Botrytis,99%
same,Test C disease control rating,Alternaria solani; tomato early blight,0%
same,Test I disease control rating,[1]; wheat leaf rust,99%
same,Test H disease control rating,[2]; wheat leaf rust,9%
same,Test J disease control rating,[3]; wheat powdery mildew,96%
COc1ccc(-c2c(C)nn(C)c2Nc2ccc(Cl)cc2Cl)c(Cl)c1 [compound 282],Test F rating (% disease control),Septoria nodorum; [9],0%
same,Test B rating (% disease control),Botrytis cinerea; [10],99%
same,Test C rating (% disease control),Alternaria solani; [11],98%
same,Test I rating (% disease control),[1]; [12],99%
same,Test H rating (% disease control),"[2]; wheat leaf rust, curative",0%
same,Test J rating (% disease control),[3]; [13],100%
COc1ccc(-c2c(C)nn(C)c2Oc2ccc(Cl)cc2)c(F)c1 [compound 15],Test F rating (% disease control),Septoria nodorum; [4],73%
same,Test B rating (% disease control),Botrytis cinerea; [5],99%
same,Test G rating (% disease control),Septoria tritici,99%
same,Test C rating (% disease control),Alternaria solani; [6],67%
same,Test I rating (% disease control),[1]; [7],98%
same,Test J rating (% disease control),[3]; [8],99%
Cc1ccc(Nc2c(-c3c(F)cc(C#N)cc3F)c(C)nn2C)cc1 [compound 124],Test F rating (% disease control),Septoria nodorum; [4],60%
same,Test B rating (% disease control),Botrytis cinerea; [5],100%
same,Test G rating (% disease control),Septoria tritici,99%
same,Test C rating (% disease control),Alternaria solani; [6],78%
same,Test I rating (% disease control),[1]; [7],96%
same,Test J rating (% disease control),[3]; [8],94%
